Several values for one entry are separate records, joined by “and”; a condition that tells them apart may be missing. Equal values may be shown once.
Tests used:
[1] = molecular target: Glycogen synthase kinase-3 alpha (Homo sapiens, UniProt P49840); assay: TR-FRET Assay
Summary of the method: (§1)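 Compound was preincubated 30 min in assay buffer before the kinase reaction, which was quenched with EDTA. Phosphorylation was detected by TR-FRET after adding a solution of 40 nM streptavidin-d2 and 2 nM Tb-labelled anti-pSer641 antibody.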

[2] = molecular target: Glycogen synthase kinase-3 beta (Homo sapiens, UniProt P49841); assay: TR-FRET Assay
Summary of the method: as §1

Sequence of Glycogen synthase kinase-3 alpha (P49840 whole entry): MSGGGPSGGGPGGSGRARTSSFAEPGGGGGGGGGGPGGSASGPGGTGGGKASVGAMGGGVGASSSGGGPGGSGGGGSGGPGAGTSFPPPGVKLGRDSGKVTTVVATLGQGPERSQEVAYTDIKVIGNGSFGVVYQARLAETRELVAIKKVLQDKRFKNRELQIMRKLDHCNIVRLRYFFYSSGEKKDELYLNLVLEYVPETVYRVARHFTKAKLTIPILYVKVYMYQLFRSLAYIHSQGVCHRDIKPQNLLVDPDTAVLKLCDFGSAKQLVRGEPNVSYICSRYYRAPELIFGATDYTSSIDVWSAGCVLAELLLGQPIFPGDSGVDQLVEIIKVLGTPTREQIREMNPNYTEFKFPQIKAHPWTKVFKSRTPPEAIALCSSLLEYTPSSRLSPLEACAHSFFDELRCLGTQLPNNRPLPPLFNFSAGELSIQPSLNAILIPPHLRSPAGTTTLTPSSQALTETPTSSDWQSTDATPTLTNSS
Sequence of Glycogen synthase kinase-3 beta (P49841 whole entry): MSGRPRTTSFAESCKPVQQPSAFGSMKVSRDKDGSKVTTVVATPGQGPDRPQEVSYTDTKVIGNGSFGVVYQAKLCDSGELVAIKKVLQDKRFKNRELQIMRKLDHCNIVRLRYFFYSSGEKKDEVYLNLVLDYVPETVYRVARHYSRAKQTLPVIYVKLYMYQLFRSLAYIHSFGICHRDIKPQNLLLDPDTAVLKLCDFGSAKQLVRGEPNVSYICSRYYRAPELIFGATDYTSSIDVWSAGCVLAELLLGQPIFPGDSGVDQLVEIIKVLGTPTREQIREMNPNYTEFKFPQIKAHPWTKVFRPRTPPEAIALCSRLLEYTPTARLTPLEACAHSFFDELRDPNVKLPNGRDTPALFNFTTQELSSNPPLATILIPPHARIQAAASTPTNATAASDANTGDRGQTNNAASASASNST

Structure (SMILES) | IC50 [1] | IC50 [2]
CC1(C)CC(=O)C2=C(C1)NC1=C(CN=N1)C21CN(S(=O)(=O)CC2CC2)C1 [US20250313563, Compound 929440] | < 100 nM | < 100 nM
CC[C@@]1(c2cccc(-c3ccnc(C)c3)c2)C2=CN=NC2NC2=C1C(=O)N[C@@]1(CCOC1)C2 (stereo partly drawn) [US20250313563, Compound 947406] | < 100 nM and 100 to 1000 nM | 100 to 1000 nM and > 5000 nM
CCC1(c2cccc(-c3ccnc(CCO)c3)c2)C2=CN=NC2NC2=C1C(=O)CC(C)(C)C2 (stereo not drawn) [US20250313563, Compound 945992] | < 100 nM | 100 to 1000 nM
CC[C@]1(c2cccc(N3CCOCC3)c2)C2=C(CC(C)(C)CC2=O)NC2N=NC(C(F)(F)F)=C21 (stereo partly drawn) [US20250313563, Compound 816885] | < 100 nM | < 100 nM
CCC1(c2cccc(-c3cn(C)nc3C)c2)C2=C(CC(C)(C)NC2=O)NC2N=NC(C)=C21 (stereo not drawn) [US20250313563, Compound 945460] | < 100 nM | < 100 nM
CCC1(c2cccc(-c3cn(C)nc3C)c2)C2=CN=NC2NC2=C1C(=O)NC1(CCS(=O)(=O)CC1)C2 (stereo not drawn) [US20250313563, Compound 950813] | < 100 nM | 100 to 1000 nM
CC1(C)CC(=O)C2=C(C1)NC1N=NC=C1C21CC2(CCOCC2)C1 (stereo not drawn) [US20250313563, Compound 874534] | < 100 nM and 100 to 1000 nM | < 100 nM and 100 to 1000 nM
CCC1(c2cccc(C(F)(F)F)c2)C2=CN=NC2NC2=C1C(=O)N(c1ccccc1)CC2 (stereo not drawn) [US20250313563, Compound 917211] | < 100 nM | 100 to 1000 nM
C[C@H]1CCC[C@@]2(C1)C1=C(N=NC1)NC1=C2C(=O)CC(C)(C)C1 [US20250313563, Compound 893318] | 100 to 1000 nM | 100 to 1000 nM
CC[C@]1(c2cccc(C3=C4CC=CC(F)=C4N=CC3)c2)C2=CN=NC2NC2=C1C(=O)NC(C)(C)C2 (stereo partly drawn) [US20250313563, Compound 948813] | 1000 to 5000 nM | > 5000 nM
CC[C@@]1(c2cccc(Cc3ncccn3)c2)C2=CN=NC2NC2=C1C(=O)CC(C)(C)C2 (stereo partly drawn) [US20250313563, Compound 947499] | 1000 to 5000 nM and > 5000 nM | > 5000 nM
Cc1ccccc1C(=O)N1CC2(C1)CC1(CO2)C2=C(N=NC2)NC2=C1C(=O)CC(C)(C)C2 (stereo not drawn) [US20250313563, Compound 947287] | < 100 nM | 100 to 1000 nM
Cc1ccc(S(=O)(=O)N2CCC3(CC2)C2=C(N=NC2)NC2=C3C(=O)CC(C)(C)C2)cc1Cl [US20250313563, Compound 947241] | < 100 nM | < 100 nM
CC(=O)N1CCC2(C1)CC1(CO2)C2=C(N=NC2)NC2=C1C(=O)CC(C)(C)C2 (stereo not drawn) [US20250313563, Compound 948040] | < 100 nM | 100 to 1000 nM
CC1(C)CC(=O)C2=C(C1)NC1=C(CN=N1)C21CCN(S(=O)(=O)C2CC2)CC1 [US20250313563, Compound 901470] | < 100 nM and 100 to 1000 nM | < 100 nM and 100 to 1000 nM
CC1(C)CC(=O)C2=C(C1)NC1=C(CN=N1)C21CN(C(=O)c2ccccc2)C1 [US20250313563, Compound 893315] | > 5000 nM | > 5000 nM
Cn1ccc(S(=O)(=O)N2CC[C@@]3(C2)C2=C(N=NC2)NC2=C3C(=O)CC(C)(C)C2)n1 [US20250313563, Compound 943484] | < 100 nM and 100 to 1000 nM | < 100 nM and 1000 to 5000 nM
CCC1(c2cccc(Br)c2)C2=C(N=NC2)NC2=C1C(=O)C(C)(C)C2 (stereo not drawn) [US20250313563, Compound 949805] | 100 to 1000 nM | 1000 to 5000 nM
CC1(C)CC(=O)C2=C(C1)NC1=C(CN=N1)[C@]21COC2(CCC2)C1 [US20250313563, Compound 917128] | 100 to 1000 nM | 100 to 1000 nM
CC[C@@]1(c2cccc(-c3ccncc3F)c2)C2=C(CC(C)(C)NC2=O)NC2N=NC(Cl)=C21 (stereo partly drawn) [US20250313563, Compound 949757] | < 100 nM and 100 to 1000 nM | < 100 nM and 1000 to 5000 nM

Structure (SMILES) | IC50 [1] | IC50 [2]
CC[C@@]1(c2cccc(-c3c(F)cncc3OC)c2)C2=CN=NC2NC2=C1C(=O)NC(C)(C)C2 (stereo partly drawn) [US20250313563, Compound 948150] | < 100 nM | < 100 nM and 100 to 1000 nM
CC[C@]1(c2cccc([C@H](C)c3ncccn3)c2)C2=CN=NC2NC2=C1C(=O)CC(C)(C)C2 (stereo partly drawn) [US20250313563, Compound 948057] | 100 to 1000 nM | 1000 to 5000 nM
CC[C@]1(c2cccc(-c3cnn(-c4cccnc4)c3)c2)C2=CN=NC2NC2=C1C(=O)NC(C)(C)C2 (stereo partly drawn) [US20250313563, Compound 949515] | > 5000 nM | > 5000 nM
CC[C@]1(c2cccc(C(F)(F)F)c2)C2=CN=NC2NC2=C1C(=O)CC(C)(C)C2 (stereo partly drawn) [US20250313563, Compound 790754] | 100 to 1000 nM | 1000 to 5000 nM
CC[C@]1(c2cccc(-c3ccncc3C)c2)C2=CN=NC2NC2=C1C(=O)N[C@@]1(CCCOC1)C2 (stereo partly drawn) [US20250313563, Compound 947912] | 100 to 1000 nM | 1000 to 5000 nM
CC(C)(C)CC1=C2C(N=N1)NC1=C(C(=O)CC(C)(C)C1)[C@@]21CCCc2ccccc21 (stereo partly drawn) [US20250313563, Compound 811596] | 1000 to 5000 nM | 100 to 1000 nM
CCC1(c2cccc(N(C)c3cc(C)cc(C)n3)c2)C2=CN=NC2NC2=C1C(=O)CC(C)(C)C2 (stereo not drawn) [US20250313563, Compound 943538] | < 100 nM | 100 to 1000 nM
CCC1(c2cccc(-c3ccncc3OC)c2)C2=CN=NC2NC2=C1C(=O)CC(C)(C)C2 (stereo not drawn) [US20250313563, Compound 932627] | < 100 nM | < 100 nM
CCC1(c2cccc(-c3ccnc(C)c3C)c2)C2=C(CC(C)(C)NC2=O)NC2N=NC(C)=C21 (stereo not drawn) [US20250313563, Compound 947399] | 100 to 1000 nM | 1000 to 5000 nM
CC[C@]1(c2cccc(C(F)(F)F)c2)C2=CN=NC2NC2=C1C(=O)N(c1ccc(F)cc1)CC2 (stereo partly drawn) [US20250313563, Compound 948224] | < 100 nM | 100 to 1000 nM
CC1(C)CC(=O)C2=C(C1)NC1N=NC=C1[C@]21CCCc2c(-c3ccncc3)cccc21 (stereo partly drawn) [US20250313563, Compound 945548] | < 100 nM | < 100 nM
Cc1cc([C@H]2CC[C@]3(CC2)C2=C(N=NC2)NC2=C3C(=O)CC(C)(C)C2)ccn1 [US20250313563, Compound 948415] | < 100 nM | < 100 nM
CC1(C)CC(=O)C2=C(C1)NC1N=NC=C1[C@]21CCOC2(CCCC2)C1 (stereo partly drawn) [US20250313563, Compound 907327] | 100 to 1000 nM | 1000 to 5000 nM
CC[C@]1(c2cccc(NS(C)(=O)=O)c2)C2=CN=NC2NC2=C1C(=O)CC(C)(C)C2 (stereo partly drawn) [US20250313563, Compound 927341] | 1000 to 5000 nM | 1000 to 5000 nM
CC1(C)CC(=O)C2=C(NC3=C(CN=N3)[C@]23CC[C@@H](C(F)(F)F)CC3)[C@H]1F [US20250313563, Compound 918285] | < 100 nM and 1000 to 5000 nM | 100 to 1000 nM and > 5000 nM
CC[C@]1(c2cccc(-c3cnn(C(C)C)c3F)c2)C2=CN=NC2NC2=C1C(=O)NC(C)(C)C2 (stereo partly drawn) [US20250313563, Compound 949267] | 100 to 1000 nM | 1000 to 5000 nM
CC[C@@]1(c2cccc(-c3ccncc3OC)c2)C2=CN=NC2NC2=C1C(=O)CC(C)(C)C2 (stereo partly drawn) [US20250313563, Compound 945471] | 1000 to 5000 nM and > 5000 nM | 1000 to 5000 nM and > 5000 nM
CC[C@@]1(c2cccc(N(C)c3cccc(C)n3)c2)C2=CN=NC2NC2=C1C(=O)CC(C)(C)C2 (stereo partly drawn) [US20250313563, Compound 932664] | < 100 nM | 100 to 1000 nM
CC1N=NC2=C1C1(CCOCC1)C1=C(CC(C)(C)C(F)C1=O)N2 (stereo not drawn) [US20250313563, Compound 912072] | 100 to 1000 nM | 100 to 1000 nM

Reference: BindingDB's records for patent US20250313563 (The Broad Institute, 2025)
